Experimental data: PubChem BioAssay AID1963440 (Molecular Pharmacology Branch, DTP, NCI, 2024)
Values belong to the compound of their own block, whether it stands above or below them.

System: NCI-H1417 complex spheroids, growth % test/control
Assay: Anticancer human tumor NCI-H1417 cell line growth inhibition [Asc];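 note: spheroids exposed to compounds for 7 days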;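 for viability, T/C: 100% = DMSO vehicle control wells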
Settings: for IC50: curve of first compound; for viability, T/C: stronger effect = lower value
Summary of the method: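 Tumor cells were grown as complex spheroids with human endothelial cells (HUVEC) and human mesenchymal stem cells as stroma. Agents were tested alone and in combination, in half-log steps down from the clinical Cmax, or from 10 microM where Cmax was unknown.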

IC50 (second compound 0.01 µM): 4.6 µM
IC50 (second compound 0.0316 µM): 3.76 µM
IC50 (second compound 0.1 µM): 3.98 µM
IC50 (second compound 0.316 µM): 3.07 µM
IC50 (second compound 1 µM): 3.23 µM
Structure (SMILES): C=C(F)C(=O)N1CCN(c2nc(OCC3CCCN3C)nc3c2CCN(c2cccc4cccc(Cl)c24)C3)CC1CC#N (stereo not given) + CNC(C)C(=O)NC1CN(S(=O)(=O)c2cccc(S(=O)(=O)N3CCC4CCC(C(=O)NC(c5ccccc5)c5ccccc5)N4C(=O)C(NC(=O)C(C)NC)C3)c2)CCC2CCC(C(=O)NC(c3ccccc3)c3ccccc3)N2C1=O
viability, T/C (second compound 0.01 µM, first compound 0.0316 µM): 111%
viability, T/C (second compound 0.01 µM, first compound 0.1 µM): 101%
viability, T/C (second compound 0.01 µM, first compound 0.316 µM): 106%
viability, T/C (second compound 0.01 µM, first compound 1 µM): 92.2%
viability, T/C (second compound 0.01 µM, first compound 3.16 µM): 76.2%
viability, T/C (second compound 0.01 µM, first compound 10 µM): 0.22%
viability, T/C (second compound 0.0316 µM, first compound 0.0316 µM): 98.6%
viability, T/C (second compound 0.0316 µM, first compound 0.1 µM): 102%
viability, T/C (second compound 0.0316 µM, first compound 0.316 µM): 93.2%
viability, T/C (second compound 0.0316 µM, first compound 1 µM): 105%
viability, T/C (second compound 0.0316 µM, first compound 3.16 µM): 58.8%
viability, T/C (second compound 0.0316 µM, first compound 10 µM): 0.2%
viability, T/C (second compound 0.1 µM, first compound 0.0316 µM): 90.6%
viability, T/C (second compound 0.1 µM, first compound 0.1 µM): 99.5%
viability, T/C (second compound 0.1 µM, first compound 0.316 µM): 89.8%
viability, T/C (second compound 0.1 µM, first compound 1 µM): 90%
viability, T/C (second compound 0.1 µM, first compound 3.16 µM): 62.3%
viability, T/C (second compound 0.1 µM, first compound 10 µM): 0.2%
viability, T/C (second compound 0.316 µM, first compound 0.0316 µM): 94.5%
viability, T/C (second compound 0.316 µM, first compound 0.1 µM): 90.8%
viability, T/C (second compound 0.316 µM, first compound 0.316 µM): 94.8%
viability, T/C (second compound 0.316 µM, first compound 1 µM): 97.1%
viability, T/C (second compound 0.316 µM, first compound 3.16 µM): 48.9%
viability, T/C (second compound 0.316 µM, first compound 10 µM): 0.21%
viability, T/C (second compound 1 µM, first compound 0.0316 µM): 95.2%
viability, T/C (second compound 1 µM, first compound 0.1 µM): 101%
viability, T/C (second compound 1 µM, first compound 0.316 µM): 106%
viability, T/C (second compound 1 µM, first compound 1 µM): 101%
viability, T/C (second compound 1 µM, first compound 3.16 µM): 50.9%
viability, T/C (second compound 1 µM, first compound 10 µM): 1.03%

IC50 (second compound 0.01 µM): > 3 µM
IC50 (second compound 0.0316 µM): > 3 µM
IC50 (second compound 0.1 µM): > 3 µM
IC50 (second compound 0.316 µM): > 3 µM
IC50 (second compound 1 µM): > 3 µM
Structure (SMILES): CCN1C(C(=O)NC23CCC(C(=O)O)(CC2)CC3)C(c2cccc(Cl)c2F)C2(C(=O)Nc3cc(Cl)ccc32)C12CCCCC2 (stereo not given) + CNC(C)C(=O)NC1CN(S(=O)(=O)c2cccc(S(=O)(=O)N3CCC4CCC(C(=O)NC(c5ccccc5)c5ccccc5)N4C(=O)C(NC(=O)C(C)NC)C3)c2)CCC2CCC(C(=O)NC(c3ccccc3)c3ccccc3)N2C1=O
viability, T/C (second compound 0.01 µM, first compound 0.00949 µM): 105%
viability, T/C (second compound 0.01 µM, first compound 0.03 µM): 104%
viability, T/C (second compound 0.01 µM, first compound 0.0949 µM): 105%
viability, T/C (second compound 0.01 µM, first compound 0.3 µM): 99.7%
viability, T/C (second compound 0.01 µM, first compound 0.949 µM): 106%
viability, T/C (second compound 0.01 µM, first compound 3 µM): 120%
viability, T/C (second compound 0.0316 µM, first compound 0.00949 µM): 107%
viability, T/C (second compound 0.0316 µM, first compound 0.03 µM): 118%
viability, T/C (second compound 0.0316 µM, first compound 0.0949 µM): 106%
viability, T/C (second compound 0.0316 µM, first compound 0.3 µM): 86%
viability, T/C (second compound 0.0316 µM, first compound 0.949 µM): 101%
viability, T/C (second compound 0.0316 µM, first compound 3 µM): 96.2%
viability, T/C (second compound 0.1 µM, first compound 0.00949 µM): 103%
viability, T/C (second compound 0.1 µM, first compound 0.03 µM): 102%
viability, T/C (second compound 0.1 µM, first compound 0.0949 µM): 99.7%
viability, T/C (second compound 0.1 µM, first compound 0.3 µM): 88.6%
viability, T/C (second compound 0.1 µM, first compound 0.949 µM): 95.7%
viability, T/C (second compound 0.1 µM, first compound 3 µM): 120%
viability, T/C (second compound 0.316 µM, first compound 0.00949 µM): 105%
viability, T/C (second compound 0.316 µM, first compound 0.03 µM): 95.1%
viability, T/C (second compound 0.316 µM, first compound 0.0949 µM): 105%
viability, T/C (second compound 0.316 µM, first compound 0.3 µM): 102%
viability, T/C (second compound 0.316 µM, first compound 0.949 µM): 104%
viability, T/C (second compound 0.316 µM, first compound 3 µM): 108%
viability, T/C (second compound 1 µM, first compound 0.00949 µM): 110%
viability, T/C (second compound 1 µM, first compound 0.03 µM): 108%
viability, T/C (second compound 1 µM, first compound 0.0949 µM): 106%
viability, T/C (second compound 1 µM, first compound 0.3 µM): 108%
viability, T/C (second compound 1 µM, first compound 0.949 µM): 95.4%
viability, T/C (second compound 1 µM, first compound 3 µM): 106%
